Laboratory results taken from patent US12583870B2, “Azaheteroaryl compound and application thereof” (SHANGHAI BLUERAY BIOPHARMA CO., LTD., priority 2019, dated 2026).

How the values were obtained:
[1] = target: T1, EED protein (His6-tagged full-length) binding to H3K27me3 polypeptide (Homo sapiens, UniProt O75530); test: AlphaScreen evaluation of blocking the binding of EED to H3K27Me3; details: EED 60 nM, biotinylated H3K27me3 75 nM, 30 minutes incubation
T1 construct: His6-tagged full-length EED protein (441 amino acids)
Outline: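 His6-tagged full-length EED (60 nM working stock) and biotin-H3K27me3 peptide aa 19–33 (75 nM working stock) incubated 30 min RT with 9-point 3-fold compound series in 25 mM HEPES pH 8.0, 50 mM NaCl, 0.015% Tween 20, 0.5% BSA. Ni-chelate acceptor and streptavidin donor beads (5 μg/mL each), 1 h dark; IC50 from dose-response fit. Biotin-(His)6 counterscreen checked signal interference.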

[2] = test system: trimethylation level of histone H3K27 in G401 cells; test: ELISA (H3K27 trimethylation) analysis in G401 cells; format: cell-based; details: Homo sapiens, G-401, 72 hours, H3K27me3 standardized to H3
Outline: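 Cells exposed 72 h to 10-point 3-fold dilutions, top 10 μM, 0.5% final DMSO. Acid-extracted histones assayed by ELISA (ECL) for H3K27me3, normalized to total H3 and to DMSO control; IC50 from dose-response fit.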

KARPAS-422 cells = test: Cell proliferation analysis, KARPAS-422, 13 days, CellTiter-Glo; format: cell-based; details: Homo sapiens, 312 h
Outline: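 KARPAS-422 cells were treated with PRC2 inhibitors over 9 three-fold dilutions from 10 μM top (0.5% DMSO, duplicates) in RPMI-1640 with 15% FBS at 37 °C. Every 3–4 days cells were counted and reseeded at 1×10^4/well with fresh compound. Viability was read by CellTiter-Glo luminescence on day 13.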

T1 sequence (O75530 whole entry): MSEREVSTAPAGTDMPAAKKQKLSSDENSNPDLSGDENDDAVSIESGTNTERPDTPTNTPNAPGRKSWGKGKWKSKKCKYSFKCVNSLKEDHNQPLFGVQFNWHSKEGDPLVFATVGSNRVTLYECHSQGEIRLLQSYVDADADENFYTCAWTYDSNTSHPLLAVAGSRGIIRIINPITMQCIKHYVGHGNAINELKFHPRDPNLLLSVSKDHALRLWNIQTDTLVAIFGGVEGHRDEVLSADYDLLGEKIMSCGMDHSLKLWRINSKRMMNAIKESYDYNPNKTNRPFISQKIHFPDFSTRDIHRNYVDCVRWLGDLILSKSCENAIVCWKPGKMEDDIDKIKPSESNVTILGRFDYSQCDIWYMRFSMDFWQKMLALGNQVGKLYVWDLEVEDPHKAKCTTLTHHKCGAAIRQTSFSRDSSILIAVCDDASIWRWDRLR

| SMILES | IC50 [1] [µM] | IC50 [2] [µM] | IC50 (KARPAS-422 cells) [µM] |
| --- | --- | --- | --- |
| CC1=Cc2c(-c3cnc(NCc4c(F)ccc5c4CCO5)n4cnnc34)cccc2S1(=O)=O [4-(5-(((5-fluoro-2,3-dihydrobenzofuran-4-yl)methyl)amino)-[1,2,4]triazolo[4,3-c]pyrimidin-8-yl)-2-methylbenzo[b]thiophene 1,1-dioxide] | 0.0122 | 0.0036 | 0.0042 |
| Cc1ccc(-c2cnc(NCc3c(F)ccc4c3CCO4)n3cnnc23)c2ncc(CC(N)=O)n12 [2-(8-(5-(((5-fluoro-2,3-dihydrobenzofuran-4-yl)methyl)amino)-[1,2,4]triazolo[4,3-c]pyrimidin-8-yl)-5-methylimidazo[1,2-a]pyridin-3-yl)acetamide] | 0.0118 | 0.003 | 0.0032 |
| Fc1ccc2c(c1CNc1ncc(-c3cccn4cnnc34)c3nncn13)[C@H]1C[C@H]1O2 [8-([1,2,4]triazolo[4,3-a]pyridin-8-yl)-N-(((1aR,6bR)-5-fluoro-1a,6b-dihydro-1H-cyclopropa[b]benzofuran-6-yl)methyl)-[1,2,4]triazolo[4,3-c]pyrimidin-5-amine] | 0.0095 | 0.0074 | 0.0048 |
| O=S1(=O)C=Cc2cc(-c3cnc(NCc4c(F)ccc5c4[C@@H]4C[C@@H]4O5)n4cnnc34)ccc21 [5-(5-((((1aS,6bS)-5-fluoro-1a,6b-dihydro-1H-cyclopropa[b]benzofuran-6-yl)methyl)amino)-[1,2,4]triazolo[4,3-c]pyrimidin-8-yl)benzo[b]thiophene 1,1-dioxide] | 0.015 | 0.016 | 0.0038 |
| Cc1ccc(-c2cnc(NCc3c(F)ccc4c3CCO4)n3cnnc23)c2ncc(CCO)n12 [2-(8-(5-(((5-fluoro-2,3-dihydrobenzofuran-4-yl)methyl)amino)-[1,2,4]triazolo[4,3-c]pyrimidin-8-yl)-5-methylimidazo[1,2-a]pyridin-3-yl)ethan-1-ol] | 0.0099 | 0.0016 | 0.0024 |
| Cc1ccc(-c2cnc(NCc3c(F)ccc4c3CCO4)n3cnnc23)c2ncc(CC(=O)O)n12 [2-(8-(5-(((5-fluoro-2,3-dihydrobenzofuran-4-yl)methyl)amino)-[1,2,4]triazolo[4,3-c]pyrimidin-8-yl)-5-methylimidazo[1,2-a]pyridin-3-yl)acetic acid] | 0.0054 | 0.004 | 0.0047 |
| Cn1cnc2c(-c3cnc(NCc4c(F)ccc5c4CCO5)n4cnnc34)cccc21 [N-((5-fluoro-2,3-dihydrobenzofuran-4-yl)methyl)-8-(1-methyl-1H-benzo[d]imidazol-4-yl)-[1,2,4]triazolo[4,3-c]pyrimidin-5-amine] | 0.0086 | 0.0013 | 0.0016 |
| Fc1ccc2c(c1CNc1ncc(-c3cccc4ncoc34)c3nncn13)CCO2 [8-(benzo[d]oxazol-7-yl)-N-((5-fluoro-2,3-dihydrobenzofuran-4-yl)methyl)-[1,2,4]triazolo[4,3-c]pyrimidin-5-amine] | 0.0049 | 0.013 | 0.0136 |
| Fc1cc(-c2cnc(NCc3c(F)ccc4c3CCO4)n3cnnc23)c2ncc(F)n2c1 [8-(3,6-difluoroimidazo[1,2-a]pyridin-8-yl)-N-((5-fluoro-2,3-dihydrobenzofuran-4-yl)methyl)-[1,2,4]triazolo[4,3-c]pyrimidin-5-amine] | 0.0052 | 0.0077 | 0.0075 |
| Cc1ccc(-c2cnc(NCc3c(F)ccc4c3CCO4)n3cnnc23)c2ncc(C)n12 [8-(3,5-dimethylimidazo[1,2-a]pyridin-8-yl)-N-((5-fluoro-2,3-dihydrobenzofuran-4-yl)methyl)-[1,2,4]triazolo[4,3-c]pyrimidin-5-amine] | 0.0051 | 0.0027 | 0.0019 |
| Cc1ccc(-c2cnc(NCc3c(F)ccc4c3CCO4)n3cnnc23)c2ncc(CC(=O)N(C)C)n12 [2-(8-(5-(((5-fluoro-2,3-dihydrobenzofuran-4-yl)methyl)amino)-[1,2,4]triazolo[4,3-c]pyrimidin-8-yl)-5-methylimidazo[1,2-a]pyridin-3-yl)-N,N-dimethylacetamide] | 0.0114 | 0.0016 | 0.0061 |
| O=S1(=O)C=c2ccc(-c3cnc(NCc4c(F)ccc5c4CCO5)n4cnnc34)cc2=C1 [5-(5-(((5-fluoro-2,3-dihydrobenzofuran-4-yl)methyl)amino)-[1,2,4]triazolo[4,3-c]pyrimidin-8-yl)benzo[c]thiophene 2,2-dioxide] | 0.0049 | 0.0003 | 0.0004 |
| Fc1ccc2c(c1CNc1ncc(-c3ccc4nccn4c3)c3nncn13)CCO2 [N-((5-fluoro-2,3-dihydrobenzofuran-4-yl)methyl)-8-(imidazo[1,2-a]pyridin-6-yl)-[1,2,4]triazolo[4,3-c]pyrimidin-5-amine] | 0.0424 | 0.058 | 0.0941 |

Now those with a lower IC50 [1], led by results:

| IC50 [1] [µM] | IC50 [2] [µM] | IC50 (KARPAS-422 cells) [µM] | SMILES |
| --- | --- | --- | --- |
| 0.0012 | 0.0045 | 0.0036 | Fc1ccc2c(c1CNc1ncc(-c3cccn4c(Cc5ccccc5)cnc34)c3nncn13)CCO2 [8-(3-phenylmethylimidazo[1,2-a]pyridin-8-yl)-N-((5-fluoro-2,3-dihydrobenzofuran-4-yl)methyl)-[1,2,4]triazolo[4,3-c]pyrimidin-5-amine] |
| 0.0047 | 0.0032 | 0.0035 | N#Cc1cnc2c(-c3cnc(NCc4c(F)ccc5c4CCO5)n4cnnc34)cccn12 [8-(5-(((5-fluoro-2,3-dihydrobenzofuran-4-yl)methyl)amino)-[1,2,4]triazolo[4,3-c]pyrimidin-8-yl)imidazo[1,2-a]pyridine-3-carbonitrile] |
| 0.0038 | 0.0008 | 0.0007 | O=S1(=O)C=Cc2cc(-c3cnc(NCc4c(F)ccc5c4[C@H]4C[C@H]4O5)n4cnnc34)ccc21 [5-(5-((((1aR,6bR)-5-fluoro-1a,6b-dihydro-1H-cyclopropa[b]benzofuran-6-yl)methyl)amino)-[1,2,4]triazolo[4,3-c]pyrimidin-8-yl)benzo[b]thiophene 1,1-dioxide] |
| 0.002 | 0.014 | 0.0087 | CC1=C(C)S(=O)(=O)c2c(F)cc(-c3cnc(NCc4c(F)ccc5c4CCO5)n4cnnc34)cc21 [7-fluoro-5-(5-(((5-fluoro-2,3-dihydrobenzofuran-4-yl)methyl)amino)-[1,2,4]triazolo[4,3-c]pyrimidin-8-yl)-2,3-dimethylbenzo[b]thiophene 1,1-dioxide] |
| 0.0021 | 0.0104 | 0.0097 | Fc1ccc2c(c1CNc1ncc(-c3cnn4cccnc34)c3nncn13)CCO2 [N-((5-fluoro-2,3-dihydrobenzofuran-4-yl)methyl)-8-(pyrazolo[1,5-a]pyrimidin-3-yl)-[1,2,4]triazolo[4,3-c]pyrimidin-5-amine] |
| 0.0027 | 0.0079 | 0.0088 | CC1=Cc2ccc(-c3cnc(NCc4c(F)ccc5c4CCO5)n4cnnc34)cc2S1(=O)=O [6-(5-(((5-fluoro-2,3-dihydrobenzofuran-4-yl)methyl)amino)-[1,2,4]triazolo[4,3-c]pyrimidin-8-yl)-2-methylbenzo[b]thiophene 1,1-dioxide] |
| 0.0044 | 0.0085 | 0.042 | Fc1ccc2c(c1CNc1ncc(-c3cc(Cl)cn4ccnc34)c3nncn13)CCO2 [8-(6-chloroimidazo[1,2-a]pyridin-8-yl)-N-((5-fluoro-2,3-dihydrobenzofuran-4-yl)methyl)-[1,2,4]triazolo[4,3-c]pyrimidin-5-amine] |
| 0.003 | 0.0025 | 0.0022 | CCc1cnc2c(-c3cnc(NCc4c(F)ccc5c4CCO5)n4cnnc34)ccc(C)n12 [8-(3-ethyl-5-methylimidazo[1,2-a]pyridin-8-yl)-N-((5-fluoro-2,3-dihydrobenzofuran-4-yl)methyl)-[1,2,4]triazolo[4,3-c]pyrimidin-5-amine] |
| 0.0045 | 0.0028 | 0.0005 | O=S1(=O)C=Cc2cc(-c3cnc(NCc4c(F)ccc5c4CCO5)n4cnnc34)cc(F)c21 [7-fluoro-5-(5-(((5-fluoro-2,3-dihydrobenzofuran-4-yl)methyl)amino)-[1,2,4]triazolo[4,3-c]pyrimidin-8-yl)benzo[b]thiophene 1,1-dioxide] |
